Data from patent US20040110847A1, “Compounds extracted from Sap of Rhus succedanea” (priority 2002, published 2004).
Converted amounts (≈) assume the structure as drawn.

Columns and labels:
Hela cells = experiment: Cytotoxicity, acid phosphatase assay, HeLa; format: cell-based, Human; conditions: 72 h; concentration of 50% growth inhibition
Protocol: (§1) (5). Determination of Cytotoxicity. Four human cancer cell lines, HeLa, Huh7, HCT116 and LoVo were used to assess cytotoxicity of the purified compounds. All the cell lines, except Huh7 cells,^14 were purchased from American Type Culture Collection. The cells were cultured in Dulbecco's modified Eagle medium (DMEM) supplemented with 10% fetal calf serum (FCS), 100 units/ml penicillin and […] streptomycin at 37° C. under 5% CO2. Cells were grown in a 96 well plate (2000 cells/well) with or without the addition of compounds 1, 2 or 3 for 72 h. An acid phosphatase assay^14,15 was then used to quantitate the viable cells. Briefly, after the media were aspirated, the cells were washed with phosphate buffer saline (PBS) and then incubated with 100 μl of 0.1M sodium acetate buffer containing 10 mM p-nitrophenyl phosphate and 0.1% Triton X-100, and incubated at 37° C. for 1 h. The reaction was stopped by the addition of 10 μl of 1 N NaOH and coloration of the cells was measured at 410 nm by an ELISA reader. The concentrations of 50% growth inhibition (IC50) were interpolated from dose-dependent growth inhibition curves. The data HeLa, Huh7, HCT116 and LoVo presented were the averages derived from a minimum of triplicate independent experiments.

Huh7 cells = experiment: Cytotoxicity, acid phosphatase assay, Huh7; format: cell-based, Human; conditions: 72 h; concentration of 50% growth inhibition
Protocol: as §1

HCT116 cells = experiment: Cytotoxicity, acid phosphatase assay, HCT116; format: cell-based, Human; conditions: 72 h; concentration of 50% growth inhibition
Protocol: as §1

Lovo cells = experiment: Cytotoxicity, acid phosphatase assay, LoVo; format: cell-based, Human; conditions: 72 h; concentration of 50% growth inhibition
Protocol: as §1

[1] = tested on: four human cancer cell lines (HeLa, Huh7, HCT116, LoVo); experiment: Cytotoxicity evaluation across four human cancer cell lines; format: cell-based
Protocol: as §1

[2] = Antioxidative potency (AOP), iron/ascorbate system with linoleic acid as substrate; format: biochemical; conditions: compared with BHT; FIG. 2; ca. 1, 4, 10 ppm; 37° C., 5 and 30 min
Protocol: (4). Determination of Antioxidative Activity: The procedure using an iron/ascorbate system reported by Yoon,^9 Chiou,^10 Decker,^11 Tamura,^12 and Sasaki^13 was modified. In a beaker (50 ml), 100 mg of linoleic acid, 1.0 g of Tween 20, and 20 ml of Tris-buffer (pH 7.4, 50 mM) were combined, gently shaken and emulsified with a sonicator for 2 min. An iron/ascorbate solution containing 30 μM FeCl3 and 200 μM ascorbic acid in the Tris-buffer (pH 7.4, 50 mM) was prepared daily. In a series of 1.5-ml microfuge tubes, 0.5 ml of the emulsified linoleic acid, 0.5 ml of the iron/ascorbate solution, and 0.1 ml of methanol containing various concentrations of the three compounds or BHT including 0, 10, 40 and 100 ppm (μg/ml) (resulting in ca. 0, 1, 4 and 10 ppm of concentration after combination) were deposited. Prior to incubation, the tubes were immersed and kept in an ice bath to minimize any reactions. To initiate reaction, the mixtures in the tubes were mixed by hand (gently to prevent foaming) and placed into the wells of a thermal block at 37° C. for 5 and 30 min. After incubation, the produced conjugated diene hydroperoxide (CDHP) contents were determined spectrophotometrically. […] The absorbance (A) at 234 nm of the mixture was measured. […] The percentage of AOP (capacity to inhibit peroxide formation in linoleic acid) was calculated as follows. […]

C/C=C/C=C/C/C=C\CCCCCCCCCc1cc(O)ccc1O [Compound 1, 10′(Z),13′(E),15′(E)-heptadecatrienylhydroquinone]
IC50 Hela cells (Hela cells): 2.8 µg/mL (≈ 8.17 µM)
IC50 Huh7 cells (Huh7 cells): 3.9 µg/mL (≈ 11.4 µM)
IC50 HCT116 cells (HCT116 cells): 2.0 µg/mL (≈ 5.84 µM)
IC50 Lovo cells (Lovo cells): 4.5 µg/mL (≈ 13.1 µM)
cytotoxic activity against four human cancer cell lines [1]: significant cytotoxic activity
antioxidative potency (AOP) [2]: close to that of BHT

CCC/C=C/C/C=C\CCCCCCCCCc1cc(O)ccc1O [Compound 2, 10′(Z),13′(E)-heptadecadienylhydroquinone]
IC50 Hela cells (Hela cells): 4.6 µg/mL (≈ 13.4 µM)
IC50 Huh7 cells (Huh7 cells): 6.0 µg/mL (≈ 17.4 µM)
IC50 HCT116 cells (HCT116 cells): 3.5 µg/mL (≈ 10.2 µM)
IC50 Lovo cells (Lovo cells): 5.6 µg/mL (≈ 16.3 µM)
cytotoxic activity against four human cancer cell lines [1]: significant cytotoxic activity
antioxidative potency (AOP) [2]: close to that of BHT
